# Test results reported in publication PMC6891464, “Radiosynthesis and Biological Investigation of a Novel Fluorine-18 Labeled Benzoimidazotriazine-Based Radioligand for the Imaging of Phosphodiesterase 2A with Positron Emission Tomography” (Molecules, 2019).
# What was measured:
# PDE10A = details: cited from earlier work
# PDE2A [1] = details: cited from earlier work
# hPDE2A = details: cited from earlier work
# hPDE10A = test system: hPDE10A; design: method as in PMID 24189054, PMID 23651455; details: cited from earlier work
# PDE2A [2] = assay: In vitro autoradiography on pig brain cryosections, blocking studies; format: binding; details: 10 µM blocker
# Procedure: To verify these findings, blocking studies with 10 µM of TA1 (a potent PDE2 ligand)
# Pig brain cryosections (16 µm; Microm HM560 Cryostat, FischerScientific GmbH, Schwerte, Germany) were thawed, dried in a stream of cold air, and preincubated for 10 min with buffer (50 mM TRIS-HCl, pH 7.4, 120 mM NaCl, 5 mM KCl, 2 mM MgCl2) at room temperature. […] The sections were then washed twice with ice-cold 50 mM TRIS-HCl (pH 7.4), dipped in ice-cold deionized water, dried in a stream of cold air, and exposed for 60 min to an image plate. The analysis was performed using an image plate scanner (HD-CR 35; Duerr NDT GmbH, Bietigheim Bissingen, Germany).
# [3] = In vivo metabolism of the radioligand in mice; design: species or system mouse; details: i.v., 30 min p.i., radio-HPLC
# Procedure: Prior to the analysis with RP-HPLC, the samples were treated with a mixture of MeCN/H2O (4:1, v/v) to precipitate the proteins. The recovery of radioactivity in plasma and brain samples was 96% and 99%, respectively. […] As shown in the chromatograms (Figure 5), the two radio-metabolites ([^18F]M1 and [^18F]M2) found in the brain were also observed in the corresponding plasma sample, indicating their ability to penetrate the blood-brain barrier. […] On the basis of the in vitro metabolites M1 and M2, both elucidated by LC-MS in the mentioned study, we can conclude about the brain penetrating radio-metabolites [^18F]M1 and [^18F]M2 as products of N-oxidation or C-hydroxylation. Besides, some of the more polar radio-metabolites detected in plasma could only tentatively be assigned as formed by mono-oxygenation, di-oxygenation, reduction, and demethylation, but were not investigated further. […]
# Protein precipitation of plasma and brain samples was performed in duplicate with ice-cold MeCN/H2O (8:2, v/v), which was added to the samples (sample/solvent, 1:4, v/v). […] The combined supernatants were concentrated at 70 °C under nitrogen stream until a remaining volume of 100 µL and subsequently quantified by analytical radio-HPLC with an isocratic system (42% MeCN/20 mM NH4OAcaq.; flow rate: 1.0 mL/min). […]
# [4] = In vitro stability of the radioligand; format: physicochemical; details: PBS, pig plasma, n-octanol and saline formulation containing 10% ethanol; 40 °C, up to 1 h
# Procedure: (§1) The lipophilicity was determined by the shake-flask method in the n-octanol/PBS system. […] Moreover, the big discrepancy between the experimental and the calculated logD7.4 value was already observed for our PDE2 tracer [^18F]TA5 and has been previously discussed. It is assumed that the experimentally determined higher hydrophilicity of [^18F]TA5 might be due to the solvation effect related to hydrogen bonding and ionization of the radioligand in the aqueous buffered system. Whereas with the software-based determination, this effect may be underestimated. Therefore, the calculated logD value is often higher than the experimentally determined value.
# Samples were taken at 30 and 60 min and analyzed by radio-TLC and radio-HPLC.
# [5] = Lipophilicity by shake-flask method (n-octanol/PBS); format: physicochemical; details: n-octanol/PBS pH 7.4, ambient temperature, read-out: logD7.4
# Procedure: as §1
# The tubes were shaken for 20 min using a mechanical shaker (HS250 basic, IKA Labortechnik GmbH & Co. KG, Staufen, Germany) followed by centrifugation (5000 rpm for 5 min) and separation of the phases. Aliquots of 1 mL of the organic and the aqueous phase were taken, and the activity was measured using an automated gamma counter (1480 WIZARD, Fa. Perkin Elmer, Waltham, MA, USA). The distribution coefficient (D) was calculated as [activity (cpm/mL) in n-octanol]/[(activity (cpm/mL) in PBS], specified as the decadic logarithm (logD).
# PDE2A [6] = biological target: T1, PDE2A (Mus musculus, UniProt Q922S4); assay: Dynamic PET-MRI studies in CD-1 mice; format: in vivo; details: female CD-1 mice, i.v., 5 min p.i.; whole brain, striatum and cerebellum
# T1 construct: from tissue; host or cells: brain of living female CD-1 mice (in vivo PET)
# T1 sequence (Q922S4 1-939): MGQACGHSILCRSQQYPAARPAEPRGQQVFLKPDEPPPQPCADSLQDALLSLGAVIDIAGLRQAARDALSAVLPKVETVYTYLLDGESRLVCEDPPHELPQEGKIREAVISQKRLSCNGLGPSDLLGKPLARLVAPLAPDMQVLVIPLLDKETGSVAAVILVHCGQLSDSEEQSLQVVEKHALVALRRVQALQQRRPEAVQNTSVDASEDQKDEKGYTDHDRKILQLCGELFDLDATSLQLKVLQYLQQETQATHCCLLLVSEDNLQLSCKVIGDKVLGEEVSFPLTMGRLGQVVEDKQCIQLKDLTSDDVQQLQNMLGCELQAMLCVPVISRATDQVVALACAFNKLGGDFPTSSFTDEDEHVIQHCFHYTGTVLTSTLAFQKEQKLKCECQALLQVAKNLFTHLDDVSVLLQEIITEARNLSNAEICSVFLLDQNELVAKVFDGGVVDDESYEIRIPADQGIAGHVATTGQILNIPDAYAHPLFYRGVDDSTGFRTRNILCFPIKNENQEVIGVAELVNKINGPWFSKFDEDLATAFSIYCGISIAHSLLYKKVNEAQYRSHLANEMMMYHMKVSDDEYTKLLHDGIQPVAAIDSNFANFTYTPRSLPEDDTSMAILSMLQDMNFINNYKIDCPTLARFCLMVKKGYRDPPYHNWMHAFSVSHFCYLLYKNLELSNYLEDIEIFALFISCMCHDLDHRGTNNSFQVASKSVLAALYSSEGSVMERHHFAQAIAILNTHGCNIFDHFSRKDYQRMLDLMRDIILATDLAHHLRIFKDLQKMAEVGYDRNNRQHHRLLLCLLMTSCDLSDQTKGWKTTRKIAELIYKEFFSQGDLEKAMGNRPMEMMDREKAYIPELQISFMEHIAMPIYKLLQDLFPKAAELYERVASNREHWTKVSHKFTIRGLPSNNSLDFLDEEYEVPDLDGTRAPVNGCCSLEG
# Procedure: As reflected by the time-activity curves (TACs) shown in Figure 6, the radioactivity uptake in the whole brain, striatum, and cerebellum reached standardized uptake values (SUVs) of about 0.7 at 5 min p.i., indicating blood-brain barrier penetration.
# PET/MRI scans were performed using a preclinical PET/MRI system (nanoScan, Mediso Medical Imaging Systems, Budapest, Hungary). Animals were anesthetized with a mixture of air/isoflurane (2.0%, 200 mL/min) (Anesthesia Unit U-410, agntho’s, Lidingö, Sweden), and their body temperature maintained at 37 °C with a thermal bed system. […] A dynamic 60-min PET scan was started 20 sec before radioligand injection. The list-mode data were reconstructed into 33 frames (12 × 10 sec, 6 × 30 sec, 5 × 1 min, 10 × 5 min) with 3D-ordered subset expectation maximization, 4 iterations, and 6 subsets, using an energy window of 400 to 600 KeV and coincidence mode of 1–5. After the PET scan, an MRI scan was performed for anatomical orientation and attenuation correction on a 1T magnet using a T1-weighted gradient-echo sequence (TR = 15 ms, TE = 2.6 ms). The data analysis was done with PMOD (PMOD Technologies Ltd., Zurich, Switzerland, v. 3.6), and an atlas-based method was used to obtain SUV time-activity curves for the striatum, cerebellum, and the whole brain.
smiles,measurement,setting,value
CCCCOc1ccc(F)c(-c2nc(C)c3nnc4ccc(OCC[18F])nc4n23)c1 [[^18F]TA5],IC50,PDE10A,> 1000 nM
COc1ccc2nnc3c(C)nc(-c4cc(OCCC[18F])ccc4F)n3c2n1 [[^18F]TA3],IC50,PDE2A [1],11.4 nM
same,IC50,PDE10A,318 nM
Cc1nc(-c2cnn(C)c2-c2ccc(C(F)(F)F)cc2)c2c(N3CC([18F])C3)ncnn12 [[^18F]PF-05270430],IC50,hPDE2A,0.5 nM
same,IC50,hPDE10A,> 3000 nM
"COc1ccc(Cl)c(-c2nc(C)c3nnc4ccc(-c5ccnc(F)c5)cc4n23)c1 [BIT1, 1-(2-chloro-5-methoxyphenyl)-8-(2-fluoropyridin-4-yl)-3-methylbenzo[e]imidazo[5,1-c][1,2,4]triazine]",decrease of [18F]BIT1 binding in caudate nucleus (Cd),PDE2A [2]; 1.72 nM [18F]BIT1,~ 50%
same,decrease of [18F]BIT1 binding in nucleus accumbens (Acb),PDE2A [2]; 1.72 nM [18F]BIT1,~ 30%
same,decrease of [18F]BIT1 binding in cerebellum (Cb),"PDE2A [2]; 1.72 nM [18F]BIT1, non-PDE2A region",20–30%
COc1ccc(Cl)c(-c2nc(C)c3nnc4ccc(-c5ccnc([18F])c5)cc4n23)c1 [[^18F]BIT1],"intact tracer, fraction of total activity in brain",[3]; brain homogenate,78%
same,"intact tracer, fraction of total activity in plasma",[3],43%
same,in vitro stability (radiochemical purity after incubation),[4],≥ 99%
same,logD,[5],1.81 ± 0.05
same,standardized uptake value (SUV) in brain,PDE2A [6],~ 0.7
COc1ccc2nnc3c(C)nc(-c4cc(OCCCC[18F])ccc4F)n3c2n1 [[^18F]TA4],IC50,PDE2A [1],7.3 nM
same,IC50,PDE10A,913 nM
